Measured values taken from PubChem BioAssay (NCI).
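Five concentrations, 48 hours, 96-well plates. GI50: concentration for 50% inhibition of growth. TGI: concentration producing complete growth inhibition.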

How the values were obtained:
Assay in all cases: NCI-60 cell line screen, 48 h
[1] = system: SK-OV-3 ovarian
[2] = system: COLO 205 colon
[3] = system: LOX IMVI melanoma
[4] = system: CAKI-1 renal
[5] = system: EKVX NSCLC
[6] = system: SK-MEL-5 melanoma
[7] = system: K-562 leukemia
[8] = system: HCT-15 colon
[9] = system: CCRF-CEM leukemia
[10] = system: MOLT-4 leukemia

## CC(C)CCC[C@@H](C)[C@H]1CC[C@H]2[C@@H]3CC[C@H]4C[C@@H](CCC=C(c5cc(Cl)c(O)c(C(=O)O)c5)c5cc(Cl)c(O)c(C(=O)O)c5)CC[C@]4(C)[C@H]3CC[C@]12C
[1]
  TGI: > 100 µM
[2]
  TGI: > 100 µM
[3]
  TGI: > 100 µM
[4]
  TGI: > 100 µM
[5]
  TGI: > 100 µM
[6]
  TGI: > 100 µM
[7]
  TGI: > 100 µM
[8]
  TGI: > 100 µM
[9]
  TGI: > 100 µM
[10]
  TGI: > 100 µM

## CN(C)CCNc1ccc(CO)c2sc3ccc(O)cc3c(=O)c12
[1]
  TGI: 8.29 µM
[2]
  TGI: 16.8 µM
[3]
  TGI: 6.75 µM
[4]
  TGI: > 25.9 µM
[5]
  TGI: 19.1 µM
[6]
  TGI: 8.37 µM
[7]
  TGI: > 20.9 µM
[8]
  TGI: 14.2 µM
[9]
  TGI: 21.3 µM
[10]
  TGI: > 21.7 µM

## CCCNC(=O)C1C(=O)C(=O)N(CCC)C1=O (centres undefined)
[1]
  TGI: > 100 µM
[2]
  TGI: > 100 µM
[3]
  TGI: > 100 µM
[4]
  TGI: > 100 µM
[5]
  TGI: > 100 µM
[6]
  TGI: > 100 µM
[7]
  TGI: > 100 µM
[8]
  TGI: > 100 µM
[9]
  TGI: > 100 µM
[10]
  TGI: > 100 µM

## CC1/C=C/[C@@]2(C)CCC(C(C)(C)O)C2C(O)C[C@](C)(O)/C=C/C1 (some centres undefined)
[1]
  TGI: > 100 µM
[2]
  TGI: > 100 µM
[3]
  TGI: > 100 µM
[4]
  TGI: > 100 µM
[5]
  TGI: > 100 µM
[6]
  TGI: > 100 µM
[7]
  TGI: > 100 µM
[8]
  TGI: > 100 µM
[9]
  TGI: > 100 µM
[10]
  TGI: > 100 µM

## CC(=O)N/N=C1\CC(C)(C)C2CCC1C2 (centres undefined)
[1]
  TGI: > 100 µM
[2]
  TGI: > 100 µM
[3]
  TGI: > 100 µM
[4]
  TGI: > 100 µM
[5]
  TGI: > 100 µM
[6]
  TGI: > 100 µM
[7]
  TGI: > 100 µM
[8]
  TGI: > 100 µM
[9]
  TGI: > 100 µM
[10]
  TGI: > 100 µM

## O=C1/C(=C/c2cccc(Br)c2)COc2ccc(O)cc21
[1]
  GI50: 7.33 µM
  TGI: 19.8 µM
[2]
  GI50: 3.33 µM
  TGI: 11.1 µM
[3]
  GI50: 1.7 µM
  TGI: 3.41 µM
[4]
  GI50: 1.83 µM
  TGI: 5.12 µM
[5]
  GI50: 4.78 µM
  TGI: 17.4 µM
[6]
  GI50: 1.91 µM
  TGI: 4.35 µM
[7]
  GI50: 1.24 µM
  TGI: 11 µM
[8]
  GI50: 1.95 µM
  TGI: 7.88 µM
[9]
  GI50: 0.285 µM
  TGI: 1.88 µM
[10]
  GI50: 2.46 µM
  TGI: 10.9 µM

## CC(=O)c1ccc2c(c1)C1C=CCC1[C@H](c1cc3c(cc1Br)OCO3)N2 (some centres undefined)
[1]
  GI50: 1.47 µM
  TGI: 17.8 µM
[2]
  GI50: 1.94 µM
  TGI: 5.71 µM
[3]
  GI50: 1.31 µM
  TGI: 2.62 µM
[4]
  GI50: 0.512 µM
  TGI: 20.5 µM
[5]
  GI50: 1.38 µM
  TGI: > 52.5 µM
[6]
  GI50: 1.13 µM
  TGI: 5.81 µM
[7]
  GI50: 0.794 µM
[8]
  GI50: 1.24 µM
  TGI: 20.6 µM
[9]
  GI50: 0.644 µM
  TGI: 2.77 µM
[10]
  GI50: 1.03 µM
  TGI: 7.77 µM

## COc1ccc2c(=O)cc(-c3ccccc3)[nH]c2c1
[1]
  GI50: 1.17 µM
  TGI: > 30.8 µM
[2]
  GI50: 0.364 µM
  TGI: 1.55 µM
[3]
  GI50: 4.17 µM
  TGI: > 100 µM
[4]
  GI50: 0.323 µM
  TGI: > 100 µM
[5]
  GI50: 2.25 µM
  TGI: > 100 µM
[6]
  GI50: 0.323 µM
  TGI: 7.4 µM
[7]
  GI50: 0.439 µM
  TGI: > 100 µM
[8]
  GI50: 0.518 µM
  TGI: > 100 µM
[9]
  GI50: 1.48 µM
  TGI: > 100 µM
[10]
  GI50: 1.25 µM
  TGI: > 100 µM

## CCC(=O)c1c(NOC2OCC(OC(C)=O)C(OC(C)=O)C2OC(C)=O)nc(OC)n(C)c1=O (centres undefined)
[1]
  TGI: > 100 µM
[2]
  TGI: > 100 µM
[3]
  TGI: > 100 µM
[4]
  TGI: > 100 µM
[5]
  TGI: > 100 µM
[6]
  TGI: > 100 µM
[7]
  TGI: > 100 µM
[8]
  TGI: > 100 µM
[9]
  TGI: > 100 µM
[10]
  TGI: > 100 µM

## O=C1c2ccccc2-[n+]2ccc3c([nH]c4ccccc43)c21
[1]
  TGI: 6.27 µM
[2]
  TGI: 0.498 µM
[3]
  TGI: 0.81 µM
[4]
  TGI: 2.07 µM
[5]
  TGI: 1.6 µM
[6]
  TGI: 0.4 µM
[7]
  TGI: 3.31 µM
[8]
  TGI: > 100 µM
[9]
  TGI: 2.27 µM
[10]
  TGI: 0.613 µM

## COc1cc(F)c(F)c(Nc2ccc(I)cc2F)c1NS(=O)(=O)C1(C[C@H](O)CO)CC1
[1]
  GI50: 3.42 µM
  TGI: > 10 µM
[2]
  GI50: 0.0234 µM
  TGI: > 2.51 µM
[3]
  GI50: 0.556 µM
  TGI: > 10 µM
[4]
  GI50: 0.44 µM
  TGI: > 10 µM
[5]
  GI50: 0.323 µM
  TGI: > 10 µM
[6]
  GI50: 1.02 µM
  TGI: > 10 µM
[7]
  GI50: 1.34 µM
  TGI: > 10 µM
[8]
  GI50: 1.67 µM
  TGI: > 10 µM
[9]
  GI50: > 9.26 µM
  TGI: > 10 µM
[10]
  GI50: > 6.02 µM
  TGI: > 10 µM

## [C](#Cc1ccccc1)[Hg][C]#Cc1ccccc1
[1]
  GI50: > 100 µM
  TGI: > 100 µM
[2]
  GI50: 22.2 µM
  TGI: 48 µM
[3]
  GI50: 25.4 µM
  TGI: 63.7 µM
[4]
  GI50: 20 µM
  TGI: 41.7 µM
[5]
  GI50: > 100 µM
  TGI: > 100 µM
[6]
  GI50: 53.3 µM
  TGI: > 100 µM
[7]
  GI50: 13.2 µM
  TGI: > 100 µM
[8]
  GI50: 21.1 µM
  TGI: 43.7 µM
[9]
  GI50: 8.93 µM
  TGI: > 100 µM
[10]
  GI50: 34.3 µM
  TGI: > 100 µM

## COC/C=C\COC
[1]
  TGI: > 100 µM
[2]
  TGI: > 100 µM
[3]
  TGI: > 100 µM
[4]
  TGI: > 100 µM
[5]
  TGI: > 100 µM
[6]
  TGI: > 100 µM
[7]
  TGI: > 100 µM
[8]
  TGI: > 100 µM
[9]
  TGI: > 100 µM
[10]
  TGI: > 100 µM

## C=C1C(=O)OC2C/C(C)=C/CC/C(C)=C/CCC3(COC(C)=O)OC3CC12 (centres undefined)
[1]
  TGI: 26.7 µM
[2]
  TGI: 15.6 µM
[3]
  TGI: 23 µM
[4]
  TGI: 9.48 µM
[5]
  TGI: 38.6 µM
[6]
  TGI: 28.3 µM
[7]
  TGI: 32.7 µM
[8]
  TGI: 10.7 µM
[9]
  TGI: 8.49 µM
[10]
  TGI: 26.3 µM

## Cn1c(-c2c(N)n(Nc3cccc(Cl)c3)c3nc(C#N)c(C#N)nc23)nc2ccccc21
[1]
  GI50: 13.4 µM
  TGI: 43 µM
[2]
  GI50: 6.35 µM
  TGI: 18.2 µM
[3]
  GI50: 5.25 µM
  TGI: 11.5 µM
[4]
  GI50: 7.29 µM
  TGI: 43.2 µM
[5]
  GI50: 0.839 µM
  TGI: 7.45 µM
[6]
  GI50: 7.41 µM
  TGI: 16.6 µM
[7]
  GI50: 5.43 µM
  TGI: 25.5 µM
[8]
  GI50: 3.45 µM
  TGI: 17.2 µM
[9]
  GI50: 23.5 µM
  TGI: > 50 µM
[10]
  GI50: > 50 µM
  TGI: > 50 µM

## COc1ccc(N=NC(C(=O)c2ccccc2)C(=O)c2ccccc2)cc1
[1]
  TGI: 96 µM
[2]
  TGI: > 100 µM
[3]
  TGI: 47 µM
[4]
  TGI: > 100 µM
[5]
  TGI: 71.1 µM
[6]
  TGI: 34 µM
[7]
  TGI: > 100 µM
[8]
  TGI: > 100 µM
[9]
  TGI: 58.2 µM
[10]
  TGI: 72.2 µM
